From patent US8614201B2 (Janssen Pharmaceutica NV, priority 2009, dated 2013)

Target: Human TRPA1 (Homo sapiens, UniProt O75762)
Assay: Alternative TRPA1 Ca2+ fluorometry assay (hTRPA1/TREx-HEK293 cells, Fluo-4, FDSS 6000)
Type: cell-based
Set-up: expressed in transfected cells
Conditions: Fluo-4-AM, agonist 6,11-dihydro-5H-dibenzo[b,e]azepine-10-carboxylic acid methyl ester 25 nM, procedure used for Examples 184, 190 to 192, 194 to 316
How it was run: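 Tetracycline-induced (50 ng/ml, 24 h) hTRPA1/TREx-HEK293 cells were loaded with Fluo-4-AM and probenecid. Compound (1% DMSO final) was added after a 12 s baseline and the Ca2+ signal followed for 14 min, then 25 nM TRPA1 agonist dibenzazepine carboxylic acid methyl ester was applied. Signal is Em540 (ex 488 nm) relative to the first baseline reading.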

Human TRPA1, sequence (O75762 whole entry): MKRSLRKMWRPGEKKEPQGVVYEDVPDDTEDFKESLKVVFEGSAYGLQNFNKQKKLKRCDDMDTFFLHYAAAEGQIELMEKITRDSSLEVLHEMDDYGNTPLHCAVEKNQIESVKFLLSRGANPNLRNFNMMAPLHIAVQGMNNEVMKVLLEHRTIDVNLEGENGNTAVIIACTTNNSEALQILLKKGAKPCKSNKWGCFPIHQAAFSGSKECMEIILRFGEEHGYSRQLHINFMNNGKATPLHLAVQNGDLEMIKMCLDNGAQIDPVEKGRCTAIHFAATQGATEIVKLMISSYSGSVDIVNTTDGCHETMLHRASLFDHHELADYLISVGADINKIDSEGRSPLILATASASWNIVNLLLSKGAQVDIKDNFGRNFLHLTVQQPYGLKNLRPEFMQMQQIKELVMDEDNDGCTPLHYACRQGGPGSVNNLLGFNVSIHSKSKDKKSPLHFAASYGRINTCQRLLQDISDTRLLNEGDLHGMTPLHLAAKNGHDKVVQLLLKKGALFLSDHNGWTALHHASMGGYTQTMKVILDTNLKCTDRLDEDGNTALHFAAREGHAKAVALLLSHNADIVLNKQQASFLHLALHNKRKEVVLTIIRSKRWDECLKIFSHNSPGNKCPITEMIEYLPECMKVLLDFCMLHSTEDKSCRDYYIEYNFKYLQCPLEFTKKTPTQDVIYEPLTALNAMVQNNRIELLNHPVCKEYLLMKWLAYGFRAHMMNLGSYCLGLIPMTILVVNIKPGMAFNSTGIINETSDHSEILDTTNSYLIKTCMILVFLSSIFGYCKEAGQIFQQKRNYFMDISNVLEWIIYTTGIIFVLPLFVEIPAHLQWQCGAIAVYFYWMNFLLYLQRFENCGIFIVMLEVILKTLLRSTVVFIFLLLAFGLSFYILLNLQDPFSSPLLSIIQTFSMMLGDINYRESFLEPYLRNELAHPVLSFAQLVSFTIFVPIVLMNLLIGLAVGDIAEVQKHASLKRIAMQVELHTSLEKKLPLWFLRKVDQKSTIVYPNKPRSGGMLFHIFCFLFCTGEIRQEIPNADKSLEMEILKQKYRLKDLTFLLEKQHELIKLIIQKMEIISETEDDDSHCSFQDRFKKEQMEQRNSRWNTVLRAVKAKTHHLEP

Row | IC50 [µM] | Compound
1 | > 10 | O=C(NCc1cc(-c2ccc(C(F)(F)F)cc2)nc(N2CCN(c3ccccc3F)CC2)n1)[C@@H]1CCCN1S(=O)(=O)c1ccccc1Cl [Example 268, 1-(2-Chloro-benzenesulfonyl)-pyrrolidine-2S-carboxylic acid [2-[4-(2-fluoro-phenyl)-piperazin-1-yl]-6-(4-trifluoromethyl-phenyl)-pyrimidin-4-ylmethyl]-amide]
2 | 0.229 | O=C(NCc1cc(-c2ccc(C(F)(F)F)cc2)nc(N2CCN(c3ccccc3F)CC2)n1)[C@@H]1CCCN1S(=O)(=O)c1ccc(Cl)cc1 [Example 269, 1-(4-Chloro-benzenesulfonyl)-pyrrolidine-2S-carboxylic acid [2-[4-(2-fluoro-phenyl)-piperazin-1-yl]-6-(4-trifluoromethyl-phenyl)-pyrimidin-4-ylmethyl]-amide]
3 | 0.692 | O=C(NCc1cc(-c2ccc(C(F)(F)F)cc2)nc(N2CCN(c3ccccc3F)CC2)n1)[C@@H]1CCCN1S(=O)(=O)c1cccc(F)c1 [Example 270, 1-(3-Fluoro-benzenesulfonyl)-pyrrolidine-2S-carboxylic acid [2-[4-(2-fluoro-phenyl)-piperazin-1-yl]-6-(4-trifluoromethyl-phenyl)-pyrimidin-4-ylmethyl]-amide]
4 | > 10 | Cc1cccc(S(=O)(=O)N2CCC[C@H]2C(=O)NCc2cc(-c3ccc(C(F)(F)F)cc3)nc(N3CCN(c4ccccc4F)CC3)n2)c1 [Example 271, 1-(Toluene-3-sulfonyl)-pyrrolidine-2S-carboxylic acid [2-[4-(2-fluoro-phenyl)-piperazin-1-yl]-6-(4-trifluoromethyl-phenyl)-pyrimidin-4-ylmethyl]-amide]
5 | > 10 | Cc1cccc(Cl)c1S(=O)(=O)N1CCC[C@H]1C(=O)NCc1cc(-c2ccc(C(F)(F)F)cc2)nc(N2CCN(c3ccccc3F)CC2)n1 [Example 277, 1-(2-Chloro-6-methyl-benzenesulfonyl)-pyrrolidine-2S-carboxylic acid [2-[4-(2-fluoro-phenyl)-piperazin-1-yl]-6-(4-trifluoromethyl-phenyl)-pyrimidin-4-ylmethyl]-amide]
6 | > 10 | Cc1ccccc1S(=O)(=O)N1CCC[C@H]1C(=O)NCc1cc(-c2ccc(C(F)(F)F)cc2)nc(N2CCN(c3ccccc3F)CC2)n1 [Example 279, 1-(Toluene-2-sulfonyl)-pyrrolidine-2S-carboxylic acid [2-[4-(2-fluoro-phenyl)-piperazin-1-yl]-6-(4-trifluoromethyl-phenyl)-pyrimidin-4-ylmethyl]-amide]
7 | > 10 | Cc1ccc(S(=O)(=O)N2CCC[C@H]2C(=O)NCc2cc(-c3ccc(C(F)(F)F)cc3)nc(N3CCN(c4ccccc4F)CC3)n2)cc1Cl [Example 280, 1-(3-Chloro-4-methyl-benzenesulfonyl)-pyrrolidine-2S-carboxylic acid [2-[4-(2-fluoro-phenyl)-piperazin-1-yl]-6-(4-trifluoromethyl-phenyl)-pyrimidin-4-ylmethyl]-amide]
8 | 5.49 | O=C(NCc1cc(-c2ccc(C(F)(F)F)cc2)nc(N2CCN(c3ccccc3F)CC2)n1)[C@@H]1CCCN1S(=O)(=O)c1cc(F)cc(F)c1 [Example 281, 1-(3,5-Difluoro-benzenesulfonyl)-pyrrolidine-2S-carboxylic acid [2-[4-(2-fluoro-phenyl)-piperazin-1-yl]-6-(4-trifluoromethyl-phenyl)-pyrimidin-4-ylmethyl]-amide]
9 | ~1.07 | O=C(NCc1cccc(-c2ccc(C(F)(F)F)cc2)n1)[C@@H]1CCCN1S(=O)(=O)c1ccc(Cl)s1 [Example 284, 1-(5-Chloro-thiophene-2-sulfonyl)-pyrrolidine-2S-carboxylic acid [6-(4-trifluoromethyl-phenyl)-pyridin-2-ylmethyl]-amide]
10 | ~0.158 | O=C(NCc1cc(-c2ccc(C(F)(F)F)cc2)nc(N2CCN(c3ccccc3F)CC2)n1)[C@@H]1CCCN1S(=O)(=O)c1ccc(F)cc1 [Example 286, 1-(4-Fluoro-benzenesulfonyl)-pyrrolidine-2S-carboxylic acid [2-[4-(2-fluoro-phenyl)-piperazin-1-yl]-6-(4-trifluoromethyl-phenyl)-pyrimidin-4-ylmethyl]-amide]
11 | > 10 | CN1CCN(C(=O)c2ccc(Nc3nc(CNC(=O)[C@@H]4CCCN4S(=O)(=O)c4ccc(F)cc4)cc(-c4ccc5c(c4)OCO5)n3)cc2)CC1 [Example 288, 1-(4-Fluoro-benzenesulfonyl)-pyrrolidine-2S-carboxylic acid {6-benzo[1,3]dioxol-5-yl-2-[4-(4-methyl-piperazine-1-carbonyl)-phenylamino]-pyrimidin-4-ylmethyl}-amide]
12 | ~3.47 | CC(C)CN(CCO)c1nc(CNC(=O)[C@@H]2CCCN2S(=O)(=O)c2ccc(F)cc2)cc(-c2ccc(Br)cc2)n1 [Example 289, 1-(4-Fluoro-benzenesulfonyl)-pyrrolidine-2S-carboxylic acid {6-(4-bromo-phenyl)-2-[(2-hydroxy-ethyl)-isobutyl-amino]-pyrimidin-4-ylmethyl}-amide]

The next lines start with the compound.

Row | Compound | IC50 [µM]
13 | Cc1ccc(C)c(S(=O)(=O)N2CCC[C@H]2C(=O)NCc2cc(-c3ccc(C(F)(F)F)cc3)nc(N3CCN(c4ccccc4F)CC3)n2)c1 [Example 266, 1-(2,5-Dimethyl-benzenesulfonyl)-pyrrolidine-2S-carboxylic acid [2-[4-(2-fluoro-phenyl)-piperazin-1-yl]-6-(4-trifluoromethyl-phenyl)-pyrimidin-4-ylmethyl]-amide] | > 10
14 | O=C(NCc1cc(-c2ccc(C(F)(F)F)cc2)nc(N2CCN(c3ccccc3F)CC2)n1)[C@@H]1CCCN1S(=O)(=O)c1ccc(F)cc1F [Example 267, 1-(2,4-Difluoro-benzenesulfonyl)-pyrrolidine-2S-carboxylic acid [2-[4-(2-fluoro-phenyl)-piperazin-1-yl]-6-(4-trifluoromethyl-phenyl)-pyrimidin-4-ylmethyl]-amide] | 7.94
15 | O=C(NCc1cc(-c2ccc(C(F)(F)F)cc2)nc(N2CCN(c3ccccc3F)CC2)n1)[C@@H]1CCCN1S(=O)(=O)c1ccccc1 [Example 272, 1-Benzenesulfonyl-pyrrolidine-2S-carboxylic acid [2-[4-(2-fluoro-phenyl)-piperazin-1-yl]-6-(4-trifluoromethyl-phenyl)-pyrimidin-4-ylmethyl]-amide] | ~0.436
16 | O=C(NCc1cc(-c2ccc(C(F)(F)F)cc2)nc(N2CCN(c3ccccc3F)CC2)n1)[C@@H]1CCCN1S(=O)(=O)c1cccc(Cl)c1F [Example 273, 1-(3-Chloro-2-fluoro-benzenesulfonyl)-pyrrolidine-2S-carboxylic acid [2-[4-(2-fluoro-phenyl)-piperazin-1-yl]-6-(4-trifluoromethyl-phenyl)-pyrimidin-4-ylmethyl]-amide] | > 10
17 | CC(=O)c1ccc(S(=O)(=O)N2CCC[C@H]2C(=O)NCc2cc(-c3ccc(C(F)(F)F)cc3)nc(N3CCN(c4ccccc4F)CC3)n2)cc1 [Example 274, 1-(4-Acetyl-benzenesulfonyl)-pyrrolidine-2S-carboxylic acid [2-[4-(2-fluoro-phenyl)-piperazin-1-yl]-6-(4-trifluoromethyl-phenyl)-pyrimidin-4-ylmethyl]-amide] | > 10
18 | Cc1cc(C)c(S(=O)(=O)N2CCC[C@H]2C(=O)NCc2cc(-c3ccc(C(F)(F)F)cc3)nc(N3CCN(c4ccccc4F)CC3)n2)c(C)c1 [Example 275, 1-(2,4,6-Trimethyl-benzenesulfonyl)-pyrrolidine-2-carboxylic acid [2-[4-(2-fluoro-phenyl)-piperazin-1-yl]-6-(4-trifluoromethyl-phenyl)-pyrimidin-4-ylmethyl]-amide] | > 10
19 | O=C(NCc1cc(-c2ccc(C(F)(F)F)cc2)nc(N2CCN(c3ccccc3F)CC2)n1)[C@@H]1CCCN1S(=O)(=O)c1ccccc1F [Example 276, 1-(2-Fluoro-benzenesulfonyl)-pyrrolidine-2S-carboxylic acid [2-[4-(2-fluoro-phenyl)-piperazin-1-yl]-6-(4-trifluoromethyl-phenyl)-pyrimidin-4-ylmethyl]-amide] | 6.17
20 | O=C(NCc1cc(-c2ccc(C(F)(F)F)cc2)nc(N2CCN(c3ccccc3F)CC2)n1)[C@@H]1CCCN1S(=O)(=O)c1ccc(Cl)cc1F [Example 278, 1-(4-Chloro-2-fluoro-benzenesulfonyl)-pyrrolidine-2S-carboxylic acid [2-[4-(2-fluoro-phenyl)-piperazin-1-yl]-6-(4-trifluoromethyl-phenyl)-pyrimidin-4-ylmethyl]-amide] | > 10
21 | CC(C)(C)c1ccc(S(=O)(=O)N2CCC[C@H]2C(=O)NCc2cc(-c3ccc(C(F)(F)F)cc3)nc(N3CCN(c4ccccc4F)CC3)n2)cc1 [Example 282, 1-(4-tert-Butyl-benzenesulfonyl)-pyrrolidine-2S-carboxylic acid [2-[4-(2-fluoro-phenyl)-piperazin-1-yl]-6-(4-trifluoromethyl-phenyl)-pyrimidin-4-ylmethyl]-amide] | > 10
22 | O=C(NCc1cccc(-c2ccc(C(F)(F)F)cc2)n1)[C@@H]1CCCN1S(=O)(=O)c1ccc(F)cc1 [Example 283, 1-(4-Fluoro-benzenesulfonyl)-pyrrolidine-2S-carboxylic acid [6-(4-trifluoromethyl-phenyl)-pyridin-2-ylmethyl]-amide] | ~0.724
23 | O=C(NCc1cc(-c2ccc(C(F)(F)F)cc2)nc(-c2ccc(C(F)(F)F)cc2)n1)[C@@H]1CCCN1S(=O)(=O)c1ccc(F)cc1 [Example 285, 1-(4-Fluoro-benzenesulfonyl)-pyrrolidine-2S-carboxylic acid [2,6-bis-(4-trifluoromethyl-phenyl)-pyrimidin-4-ylmethyl]-amide] | 0.022
24 | COc1ccc(Nc2nc(CNC(=O)[C@@H]3CCCN3S(=O)(=O)c3ccc(F)cc3)cc(-c3ccc4c(c3)OCO4)n2)cc1 [Example 287, 1-(4-Fluoro-benzenesulfonyl)-pyrrolidine-2S-carboxylic acid [6-benzo[1,3]dioxol-5-yl-2-(4-methoxy-phenylamino)-pyrimidin-4-ylmethyl]-amide] | 3.72
